# According to ChEMBL document CHEMBL1134259, “Antitumor agents. Part 204: synthesis and biological evaluation of substituted 2-aryl quinazolinones” (Bioorg Med Chem Lett, 2001):
# The source made the active and inactive calls. The rule behind the calls is not given here.
# Tests used:
# [1] = target: Tubulin; experiment: Inhibitory concentration required against tubulin polymerization in the antimicrotubule activity test; type: functional
# [2] = tested on: HCT-8; experiment: In vitro effective concentration required to reduce the number of human ileocecal carcinoma (HCT-8) after 3-day incubation; type: functional; details: for EC50: HCT-8, 72 h, read-out: ED50 (the source's name)
# [3] = Therapeutic index (IC50/EC50) was determined; Did not dissolve
# [4] = tested on: KB; experiment: In vitro effective concentration required to reduce the number of P-glycoprotein-expressing human epidermoid carcinoma cells (KB-VIN) of nasopharynx after 3-day incubation; type: functional; details: 72 h, read-out: ED50 (the source's name)
# [5] = tested on: SK-MEL-2; experiment: In vitro effective concentration required to reduce the number of human melanoma cancer (SKMEL-2) after 3-day incubation; type: functional; details: SK-MEL-2, 72 h, read-out: ED50 (the source's name)
# [6] = tested on: MCF7; experiment: In vitro effective concentration required to reduce the number of human breast cancer (MCF-7) after 3-day incubation; type: functional; details: for EC50: 72 h, read-out: ED50 (the source's name)
# [7] = tested on: 1A9; experiment: In vitro effective concentration required to reduce the number of human ovarian cancer (1A9) after 3-day incubation; type: functional; details: for EC50: 1A9, 72 h, read-out: ED50 (the source's name)
# [8] = tested on: A549; experiment: In vitro effective concentration required to reduce the number of human lung carcinoma (A-549) after 3-day incubation; type: functional; details: A549, 72 h, read-out: ED50 (the source's name)
# [9] = tested on: H9; experiment: Concentration required to inhibit uninfected H9 cell growth when tested for anti-HIV activity; type: functional, cell-based; details: Homo sapiens
# [10] = tested on: H9; experiment: Concentration required to inhibit viral replication in acutely infected H9 lymphocytes when tested for anti-HIV activity; type: functional, cell-based; details: Homo sapiens
# [11] = Therapeutic index (IC50/EC50) was determined.; details: read-out: Therapeutic index
# [12] = tested on: KB; experiment: In vitro effective concentration required to reduce the number of Human epidermoid carcinoma cells (KB) of nasopharynx after 3-day incubation; type: functional; details: 72 h, read-out: ED50 (the source's name)
# [13] = tested on: Tumor cell line; experiment: Tested for inhibitory activity against growth of about half of NCI's drug screen tumor cell lines at subnanomolar concentrations; type: functional; details: read-out: Log TGI (converted)
# [14] = tested on: MCF7; experiment: In vitro effective concentration required to reduce the number of human breast cancer cells (MCF-7) after 3-day incubation; type: functional; details: MCF7, 72 h, read-out: ED50 (the source's name)
# [15] = tested on: 1A9; experiment: In vitro effective concentration required to reduce the number of human ovarian cancer cells (1A9) after 3-day incubation; type: functional; details: 1A9, 72 h, read-out: ED50 (the source's name)
# [16] = tested on: A549; experiment: In vitro effective concentration required to reduce the number of human lung carcinoma cells (A-549) after 3-day incubation; type: functional; details: A549, 72 h, read-out: ED50 (the source's name)
# [17] = tested on: SK-MEL-2; experiment: In vitro effective concentration required to reduce the number of human melanoma cancer cells (SKMEL-2) after 3-day incubation; type: functional; details: SK-MEL-2, 72 h, read-out: ED50 (the source's name)
# [18] = tested on: HCT-8; experiment: In vitro effective concentration required to reduce the number of human ileocecal carcinoma cells(HCT-8) after 3-day incubation; type: functional; details: HCT-8, 72 h, read-out: ED50 (the source's name)
SMILES,IC50 [1],EC50 [2],EC50 [4],EC50 [5],EC50 [7],EC50 [8],EC50 [10],EC50 [6],EC50 [12],Therapeutic index [3],IC50 [9],selectivity ratio [11],further results
Oc1nc(-c2ccc(F)cc2)nc2ccccc12,> 40 µM,,6.5 µg/mL,> 20 µg/mL,> 20 µg/mL,7.5 µg/mL,9.18 µM,> 20 µg/mL,> 20 µg/mL,,38.8 µM,4.22,ED50 [2]: inactive
Oc1nc(-c2cccc(F)c2)nc2ccccc12,> 40 µM,,8.5 µg/mL,> 20 µg/mL,> 20 µg/mL,9.8 µg/mL,9.53 µM,> 20 µg/mL,> 20 µg/mL,,30.7 µM,3.22,ED50 [2]: inactive
COc1cccc(-c2cc(O)c3cc(N4CCCC4)ccc3n2)c1,,,,,,,,,,,,,TGI [13]: < 0.001 µM
COc1cc2nc(-c3ccccc3F)nc(O)c2cc1OC,> 40 µM,17 µg/mL,< 5 µg/mL,< 5 µg/mL,> 20 µg/mL,< 5 µg/mL,10.9 µM,13.1 µg/mL,< 5 µg/mL,,100 µM,9.17,
COc1cc2nc(-c3ccc4ccccc4c3)nc(O)c2cc1OC,> 40 µM,> 10 µg/mL,1.6 µg/mL,8.5 µg/mL,7.8 µg/mL,8 µg/mL,7.59 µM,6.6 µg/mL,7.3 µg/mL,,100 µM,13.2,
COc1cc2nc(-c3ccc(F)cc3)nc(O)c2cc1OC,> 40 µM,> 20 µg/mL,> 20 µg/mL,> 20 µg/mL,16 µg/mL,> 20 µg/mL,,19.8 µg/mL,> 20 µg/mL,Did not dissolve,,,
COc1cccc(-c2nc(O)c3cc(OC)c(OC)cc3n2)c1,6.5 µM,> 20 µg/mL,19 µg/mL,,17.5 µg/mL,> 20 µg/mL,,14.5 µg/mL,> 20 µg/mL,,,,

# The next lines start with results.
IC50 [1],EC50 [2],EC50 [4],EC50 [5],EC50 [7],EC50 [8],EC50 [10],EC50 [6],EC50 [12],SMILES,Therapeutic index [3],IC50 [9],selectivity ratio [11],further results
> 40 µM,> 20 µg/mL,> 20 µg/mL,> 20 µg/mL,> 20 µg/mL,> 20 µg/mL,,,,COc1cc2nc(-c3cccc(F)c3)nc(O)c2cc1OC,Did not dissolve,,,ED50 [6]: inactive
4.9 µM,> 40 µg/mL,,> 40 µg/mL,4.7 µg/mL,28.1 µg/mL,,37.5 µg/mL,1.98 µg/mL,COc1cccc(-c2nc(O)c3cc(OC)ccc3n2)c1,,,,
8.6 µM,> 20 µg/mL,> 20 µg/mL,> 20 µg/mL,,> 20 µg/mL,,> 20 µg/mL,,COc1cccc(-c2nc(O)c3ccccc3n2)c1,,,,ED50 [7]: inactive
> 40 µM,,17.5 µg/mL,,,,,,> 20 µg/mL,Oc1nc(-c2ccccc2F)nc2ccccc12,Did not dissolve,,,EC50 [14]: > 20 µg/mL; EC50 [15]: 17.1 µg/mL; EC50 [16]: > 20 µg/mL; EC50 [17]: > 20 µg/mL; EC50 [18]: > 20 µg/mL
> 40 µM,19.1 µg/mL,6 µg/mL,13 µg/mL,8 µg/mL,14.4 µg/mL,,10.3 µg/mL,12.5 µg/mL,Oc1nc(-c2ccc3ccccc3c2)nc2ccccc12,Did not dissolve,,,
